Laboratory results published in publication PMC9025941, “Influence of the Type of Amino Acid on the Permeability and Properties of Ibuprofenates of Isopropyl Amino Acid Esters” (International Journal of Molecular Sciences, 2022).
“And” between values parts separate entries of the source, which are not always exact repeats. Identical values can stand only once. Like-named read-outs stand apart in the source and are kept apart here. Marks after values point to notes of the source that are not given here.

Tests used:
[1] = In vitro skin permeation, Franz diffusion cells; settings: for Q%24 h, the percentage of the applied dose permeated after 24 h / Cumulative Permeation Mass / LT, lag time: n = 3; for Q%24 h, the percentage of the applied dose permeated after 24 h / Cumulative Permeation Mass: 24 h; for EF, enhancement factor: relative to IBU; for JSS, steady-state flux: saturated solution in PBS pH 7.4, n = 3
[2] = Thermal stability (TG/DTG): decomposition onset and maximum mass-loss rate temperature
Procedure: In Figure 5, the thermal stability of ibuprofen and amino acid isopropyl ester ibuprofenates was determined and compared. All TG, DTG, and c-DTA curves are in the Supplementary Materials (Figures S87–S100). The decomposition onset temperature (Tonset) and the temperature of the maximum rate of mass loss (Tmax) were determined.

[3] = Solubility (saturation concentration) in deionised water and PBS pH 7.4, HPLC; settings: for Solubility in Phosphate Buffer pH = 7.4: PBS pH 7.4, 32 °C; for Solubility in Water: 25 °C
[4] = Solubility in organic solvents by modified Vogel's method; settings: 25 °C
[5] = n-octanol-water partition coefficient, shake flask method; settings: shake flask, 25 °C
[6] = 24 h penetration, n = 3
[7] = saturated solution in PBS pH 7.4, mass of compound
[8] = saturated solution in PBS pH 7.4, mass of ibuprofen

Structure (SMILES) | Q%24 h, the percentage of the applied dose permeated after 24 h [1] | Cumulative Permeation Mass [1, 7] | Cumulative Permeation Mass [1, 8] | LT, lag time [1] | EF, enhancement factor [1] | JSS, steady-state flux [1] | Tonset, the onset temperature of the thermal degradation [2] | Solubility in Phosphate Buffer pH = 7.4 ([3]; g of active compound (IBU)) | Solubility in Phosphate Buffer pH = 7.4 ([3]; g of compound) | Solubility in Water ([3]; g of active compound (IBU)) | Solubility in Water ([3]; g of compound) | Solubility in DMSO [4] | Solubility in chloroform [4] | Solubility in dichloromethane [4] | Solubility in ethanol [4] | Solubility in ethyl acetate [4] | Solubility in n-hexane [4] | Log P (n-octanol-water partition coefficient) [5] | Solubility in diethyl ether [4] | Solubility in toluene [4] | other results
CC(C)Cc1ccc(C(C)C(=O)O)cc1.CC(C)OC(=O)[C@@H](N)CS [[L-CysOiPr][IBU], L-cysteine isopropyl ester ibuprofenate] | 12.210 ± 1.119% | 541.776 ± 49.664 ^b µg·cm^−2 | 305.756 ± 28.028 ^b µg IBU·cm^−2 | 1.873 ± 0.104 h | 1.65 | 28.858 ± 2.984 µg IBU cm^−2 h^−1 | 190.2 °C | 2.440 ± 0.287 g IBU∙dm^−3 | 4.437 ± 0.287 g∙dm^−3 | 1.143 ± 0.253 g IBU∙dm^−3 | 2.048 ± 0.253 g∙dm^−3 | + (soluble >100 mg cm^−3) | + (soluble >100 mg cm^−3) | + (soluble >100 mg cm^−3) | + (soluble >100 mg cm^−3) | +/− (partially soluble 33–100 mg cm^−3) | − (insoluble <33 mg cm^−3) | 1.430 ± 0.005 | – | – | –
CC(C)Cc1ccc(C(C)C(=O)O)cc1.CC(C)OC(=O)[C@@H](N)[C@@H](C)O [[L-ThrOiPr][IBU], L-threonine isopropyl ester ibuprofenate] | 11.294 ± 0.505% | 714.248 ± 38.838 ^b µg·cm^−2 | 400.942 ± 17.921 ^b µg IBU·cm^−2 | 1.339 ± 0.177 h | 1.52 | 59.631 ± 6.900 µg IBU cm^−2 h^−1 | 129.6 °C | – | – | – | – | – | – | – | – | – | – | 0.998 ± 0.001 | – | – | Accumulation in the skin [6]: 621.866 ± 112.163 µg IBU g^−1
CC(C)Cc1ccc(C(C)C(=O)O)cc1.CC(C)OC(=O)[C@@H](N)CCCCN [[L-LysOiPr][IBU], L-lysine isopropyl ester ibuprofenate] | 11.062 ± 0.475% | 1011.106 ± 43.448 ^b µg·cm^−2 | 528.643 ± 22.716 µg IBU·cm^−2 and 528.643 ± 22.716 ^b µg IBU·cm^−2 | 1.423 ± 0.130 h | 1.49 | 56.801 ± 4.129 µg IBU cm^−2 h^−1 | – | 4.779 ± 0.061 g IBU∙dm^−3 | 9.140 ± 0.117 g∙dm^−3 | 5.047 ± 0.060 g IBU∙dm^−3 | 9.6534 ± 0.115 g∙dm^−3 | + (soluble >100 mg cm^−3) | − (insoluble <33 mg cm^−3) | − (insoluble <33 mg cm^−3) | + (soluble >100 mg cm^−3) | − (insoluble <33 mg cm^−3) | − (insoluble <33 mg cm^−3) | – | − (insoluble <33 mg cm^−3) | − (insoluble <33 mg cm^−3) | Tonset, the onset temperature of the thermal degradation ([2]; TG): 177.9 °C
CC(C)Cc1ccc(C(C)C(=O)O)cc1.CC(C)OC(=O)[C@@H](N)CO [[L-SerOiPr][IBU], L-serine isopropyl ester ibuprofenate] | 11.035 ± 0.500% | – | – | 1.160 ± 0.081 h | 1.49 | 66.106 µg IBU cm^−2 h^−1 and 66.106 ± 2.925 µg IBU cm^−2 h^−1 | – | – | – | – | – | – | – | – | – | +/− (partially soluble 33–100 mg cm^−3) | – | 0.775 ± 0.008 | – | − (insoluble <33 mg cm^−3) | Accumulation in the skin [6]: 407.652 ± 74.170 µg IBU g^−1; Tonset, the onset temperature of the thermal degradation ([2]; TG): 139.2 °C
CC(C)C[C@H](N)C(=O)OC(C)C.CC(C)Cc1ccc(C(C)C(=O)O)cc1 [[L-LeuOiPr][IBU], L-leucine isopropyl ester ibuprofenate] | 11.077 ± 0.236% | 424.683 ± 9.060 ^b µg·cm^−2 | 230.824 ± 4.924 ^b µg IBU·cm^−2 | 1.742 ± 0.061 h | 1.50 | 38.502 ± 1.553 µg IBU cm^−2 h^−1 | 109.5 °C | 2.084 ± 0.002 g IBU∙dm^−3 | 3.834 ± 0.003 g∙dm^−3 | 0.682 ± 0.038 g IBU∙dm^−3 | 1.255 ± 0.070 g∙dm^−3 | + (soluble >100 mg cm^−3) | + (soluble >100 mg cm^−3) | + (soluble >100 mg cm^−3) | + (soluble >100 mg cm^−3) | + (soluble >100 mg cm^−3) | − (insoluble <33 mg cm^−3) | 1.391 ± 0.001 | +/− (partially soluble 33–100 mg cm^−3) | + (soluble >100 mg cm^−3) | –
CC(C)Cc1ccc(C(C)C(=O)O)cc1.CC(C)OC(=O)[C@H](C)N [[L-AlaOiPr][IBU], L-alanine isopropyl ester ibuprofenate] | 6.786 ± 0.214% | 572.719 ± 18.05 ^b µg·cm^−2 | 350.100 ± 11.039 ^b µg IBU·cm^−2 | 1.691 ± 0.041 h | 0.92 | 44.510 ± 0.861 µg IBU cm^−2 h^−1 | 78.3 °C | 5.159 ± 0.015 g IBU∙dm^−3 | 8.440 ± 0.024 g∙dm^−3 | 2.463 ± 0.008 g IBU∙dm^−3 | 4.030 ± 0.014 g∙dm^−3 | + (soluble >100 mg cm^−3) | + (soluble >100 mg cm^−3) | + (soluble >100 mg cm^−3) | + (soluble >100 mg cm^−3) | + (soluble >100 mg cm^−3) | − (insoluble <33 mg cm^−3) | 0.719 ± 0.004 | +/− (partially soluble 33–100 mg cm^−3) | + (soluble >100 mg cm^−3) | –
CC(C)Cc1ccc(C(C)C(=O)O)cc1.CC(C)OC(=O)[C@@H](N)Cc1ccccc1 [[L-PheOiPr][IBU], L-phenylalanine isopropyl ester ibuprofenate] | 35.912 ± 0.539% | 711.866 ± 5.956 ^b µg·cm^−2 | 355.088 ± 5.482 ^b µg IBU·cm^−2 | 1.368 ± 0.091 h | 4.85 | 48.578 ± 4.836 µg IBU cm^−2 h^−1 | 175.8 °C | 1.017 ± 0.001 g IBU∙dm^−3 | 2.039 ± 0.001 g∙dm^−3 | 0.297 ± 0.024 g IBU∙dm^−3 | 0.595 ± 0.048 g∙dm^−3 | + (soluble >100 mg cm^−3) | + (soluble >100 mg cm^−3) | + (soluble >100 mg cm^−3) | + (soluble >100 mg cm^−3) | + (soluble >100 mg cm^−3) | − (insoluble <33 mg cm^−3) | 2.207 ± 0.026 | +/− (partially soluble 33–100 mg cm^−3) | + (soluble >100 mg cm^−3) | KP, times higher than for ibuprofen [1]: 6.839 times
CC(C)Cc1ccc(C(C)C(=O)O)cc1.CC(C)Cc1ccc(C(C)C(=O)O)cc1.CC(C)OC(=O)[C@@H](N)CCCCN [[L-LysOiPr][IBU]2, L-lysine isopropyl ester bis(ibuprofenate)] | 10.624 ± 0.474% | 640.825 ± 28.577 ^b µg·cm^−2 | 220.016 ± 9.811 ^b µg IBU·cm^−2 | 1.333 ± 0.258 h | 1.43 | 24.852 ± 2.857 µg IBU cm^−2 h^−1 | – | 2.071 ± 0.118 g IBU∙dm^−3 | 6.032 ± 0.342 g∙dm^−3 | 2.012 ± 0.110 g IBU∙dm^−3 | 5.861 ± 0.322 g∙dm^−3 | + (soluble >100 mg cm^−3) | − (insoluble <33 mg cm^−3) | − (insoluble <33 mg cm^−3) | + (soluble >100 mg cm^−3) | − (insoluble <33 mg cm^−3) | − (insoluble <33 mg cm^−3) | – | − (insoluble <33 mg cm^−3) | − (insoluble <33 mg cm^−3) | Accumulation in the skin [6]: 392.593 ± 111.434 µg IBU g^−1; Tonset, the onset temperature of the thermal degradation ([2]; TG): 183.7 °C
